# Experimental data published in patent US20050112123A1, “Methods of treating proteinuria” (priority 2003, published 2005).
# Assays:
# [1] = test system: Tg-26 HIV transgenic heterozygous mice; assay: Tg-26 HIV transgenic mice (HIV-associated nephropathy) in vivo
# [2] = test system: conditionally immortalized wild-type podocytes; assay: MTT proliferation assay, wild-type (WT) podocytes under growth restriction; type: cell-based, mouse
# Procedure: To test the hypothesis that ATRA altered the proliferative capacity of podocytes in HIV transgenic mice, conditionally immortalized podocytes harvested from transgenic HIV Tg-26 (Tg) and conditionally immortalized podocytes from transgene free or wild-type podocytes (controls) were compared in a series of studies. Both transgenic and wild-type cell lines were initially plated in “growth permissive” conditions (33° C.) and grown in 10 ml of “standard media,” consisting of 90% RPMI 1640 (Invitrogen, Grand Island, N.Y.), 10% fetal bovine serum (Hyclone, Logan, Utah), 1% L-glutamine (Irvine Scientific, Santa Ana, Calif.), 1% pen-strep (Biosource, Rockville, Md.), 1% sodium bicarbonate (Sigma-Aldrich, St Louis, Mo.) and 1% HEPES buffer (Sigma-Aldrich, Santa, Ana, Calif.), and 1% sodium pyruvate (Irvine Scientific, Santa Ana, Calif.). For growth promotion, 5 μl of mouse gamma interferon were added to 10 ml of media. […]
# Each study group was assessed for proliferation (see below) at three different time points as follows: (i) day “1” of growth restriction which was defined as 24 h after plating cells into growth restrictive conditions; (ii) day 7 of growth restrictive conditions. […]
# Cell proliferation was assessed by the MTT (Promega, Madison, Wis.) assay on days 1, 7, and 14 of growth restriction. […]
# rat podocytes [3] = assay: MTT cell proliferation assay, rat podocytes
# rat podocytes [4] = assay: Immunofluorescent staining of cultured rat podocytes (nephrin, podocin)
# [5] = test system: C57BL6 mice with anti-glomerular antibody-mediated podocyte injury; assay: Anti-glomerular antibody model of podocyte injury: renal function (proteinuria, BUN); type: in vivo, mouse; details: for BUN increase: anti-glomerular disease; for proteinuria vs control (vehicle): mice with anti-glomerular disease, ATRA 16.6 mg/kg IP daily, P<0.001, FIG. 3
# Procedure: An antibody-mediated model of podocyte injury was induced in C57BL6 mice with a sheep anti-glomerular antibody (two doses of 0.3 ml/20 gm body weight) over two consecutive days. Kim et al. (1999) Kidney Int 55:2349-2361; and Ophascharoensuk et al. (1998) Kidney Int 54:416-425. After the induction of the anti-glomerular model, but before the development of proteinuria, mice were then divided into an experimental group that received daily injections of ATRA 16.6 mg/kg (IP), and a control group that received vehicle (corn oil). Experimental and control animals were studied on day 7 and 14 (n=5 per group/time point). The podocyte specific proteins WT-1, nephrin, podocin, synaptopodin, were measured by immunostaining at each time point, as was the proliferation marker, PCNA (see above). Using proliferating cell nuclear antigen (PCNA) as a marker of proliferation and WT-1 as a marker for podocytes, the level of podocyte proliferation was determined.
# Renal Function Assessment. Control and experimental mice were placed in metabolic urine collection cages in order to obtain a timed collection for urinalysis. Urine was analyzed for protein content utilizing the sulphosalicylic acid (SSA) method as previously described. Shankland et al. (1996) Kidney Int. 50:116-124. Serum was also collected from mice in order to evaluate blood urea nitrogen (BUN) levels. The BUN kit (Sigma Chemicals, St. Louis, Mo., USA) is based on the direct interaction of urea with diacetyl monomoxime […]. The absorbance obtained from serum samples is compared with a standard curve of increasing concentrations of urea nitrogen standards.
# podocytes [6] = assay: Hoecht's Assay of apoptosis for dose selection; type: cell-based, mouse; details: 25 mM ATRA
# Procedure: The dose of 25 mMol/ml ATRA was selected after exposing cells to varying mMol doses of ATRA (10, 25, 50, 75, 100) and then measuring apoptosis with the Hoecht's Assay according to the manufacturer's directions. Apoptosis was not increased at 25 mM.
# podocytes [7] = assay: Hoechst 33342 staining for apoptosis and binucleated cells; type: cell-based; details: at the concentrations of ATRA used in these experiments; statistically insignificant
# Procedure: To ensure that the anti-proliferative effects of ATRA were not confounded by podocyte apoptosis in podocytes or bi-nucleated cells, Hoechst 33342 (Molecular Probes, Eugene, Oreg., USA) staining was performed as previously reported. Hiromura et al. (1999) J Clin Invest 103:597-604. Careful morphological analysis was performed and the percentage of apoptotic cells was quantitated in adherent and non-adherent cells using inverted fluorescent microscopy as previously described. Hiromura et al. (1999) supra; and Mooney et al. (1997) J Immunol 159:3949-3960.
# [8] = test system: heat sensitive mouse podocytes; assay: Immunofluorescent staining of cultured HSMP (nephrin, podocin); details: 200 μM ATRA
# [9] = ATRA treated Tg mice (5 animals)
smiles,measurement,setting,value
"CC1=C(/C=C/C(C)=C/C=C/C(C)=C/C(=O)O)C(C)(C)CCC1 [ATRA, all-trans retinoic acid]",collapsed glomeruli,[1]; [9],no collapsed glomeruli
same,glomeruli with 0-25% sclerosis,[1]; [9],4.8%
same,glomeruli with 25-50 sclerosis,[1]; [9],1.2%
same,glomeruli with 50-75% or 75-100% sclerosis,[1]; [9],No glomeruli were seen
same,glomeruli with no sclerosis,"[1]; ATRA treated Tg mice (5 animals), 50 glomeruli per tissue sample",94%
same,segmental sclerosis vs carrier treated transgenic animals,"[1]; Tg mice, 4 months of life",reduced the sclerosis by a statistically significant amount
same,serum BUN,[1]; the different groups,no significant difference
same,proteinuria vs carrier treated transgenic animals (Tg C),"[1]; transgenic mice, ATRA 16 mg/kg intraperitoneal three times a week",tended to have less proteinuria
same,significance of difference in proteinuria vs carrier treated animals,"[1]; transgenic mice, all other time points",not significant
same,significance of difference in proteinuria vs carrier treated animals,"[1]; transgenic mice, at 80 days",statistically significant
same,interstitial disease score (tubular dilatation),[1]; two ATRA treated Tg animals,no tubular dilatation
same,"proliferation of WT podocytes (MTT), exposed to ATRA vs without ATRA",[2],no measurable difference
same,rat podocyte proliferation (viable cell number by MTT assay),"rat podocytes [3]; 1 μM, 5 μM, 10 μM, 50 μM, 200 μM ATRA, FIG. 1",reduced rat podocyte proliferation in a concentration-dependent fashion
same,MTT absorbance compared to control cells,"rat podocytes [3]; rat podocytes, beginning at one μM, P<0.001",significantly reduced MTT absorbance
same,podocin immunostaining compared to control,"rat podocytes [4]; cultured rat podocytes, OptM ATRA",increased immunostaining
same,nephrin immunostaining compared to control cells exposed to vehicle,"rat podocytes [4]; undifferentiated and proliferating rat podocytes, 10 μM ATRA",nephrin immunostaining increased
same,BUN increase,[5]; day 7,not altered
same,BUN increase,[5]; day 14,not altered
same,proteinuria vs control (vehicle),[5]; day 7,significantly reduced proteinuria
same,proteinuria vs control (vehicle),[5]; day 14,significantly reduced proteinuria
same,apoptosis (Hoecht's Assay),podocytes [6],not increased
same,cells undergoing apoptosis (Hoechst staining),podocytes [7],< 4 % of total cells
same,podocin immunostaining compared to control,[8]; HSMP,increased immunostaining
same,nephrin immunostaining compared to control cells exposed to vehicle,[8]; heat sensitive mouse podocytes,nephrin immunostaining increased
